This note sets out measurements from ChEMBL document CHEMBL1201862, “PubChem BioAssay data set” (2004).

Each structure is given as a SMILES string.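 Compound exposure: 48 hours, 5 concentrations, 96-well plates. At the GI50, growth is halved.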 Calls of active or inactive are those of the source. No stated cut-off is given here; in the data, active = GI50 up to about 1.1 µM and inactive = higher.

Test systems include A549; CAKI-1; SN12C; HCT-116; SK-MEL-2; SF-539; HT-29; HCC 2998; UACC-257; BT-549; OVCAR-4; HL-60; NCI-H460; SW-620; OVCAR-3; HOP-62; CCRF-CEM; Malme-3M; K562.
Holding throughout (assay): growth of human tumour cells (NCI), 48 h

For `CC(=O)Oc1c2ccsc2c(OC(C)=O)c2ccsc12`, the GI50 is 0.224 µM (active) with A549; 2.11 µM (inactive) in the assay with CAKI-1; 0.714 µM (active) with SN12C; 0.764 µM (active) in the assay on HCT-116; 0.138 µM (active) in the assay on SK-MEL-2; 0.294 µM (active) in the assay with SF-539. The GI50 in the assay with HT-29 was 2.12 µM (inactive); in the assay on HCC 2998, 1.8 µM (inactive); in the assay with UACC-257 it was 0.189 µM (active); in the assay with BT-549, 0.384 µM (active); in the assay on OVCAR-4, 0.67 µM (active); with HL-60, 0.647 µM (active). For the same compound, the GI50 in the assay on NCI-H460 was 1.81 µM (inactive); with SW-620 it was 1.08 µM (active); in the assay on OVCAR-3 it was 0.417 µM (active); with HOP-62, 1.27 µM (inactive); with CCRF-CEM, 0.859 µM (active); with Malme-3M, 0.286 µM (active).

As for `CN1C(=O)C(O)CC1c1ccccc1C(F)(F)F` (stereo unspecified), the GI50 in the assay on A549, in the assay with CAKI-1, with SN12C, with HCT-116, in the assay with SK-MEL-2 and with SF-539 was > 100 µM (inactive) in each case. For the same compound, the GI50 in the assay with HT-29, in the assay with HCC 2998, in the assay on UACC-257, in the assay with BT-549, with OVCAR-4 and in the assay with HL-60 was > 100 µM (inactive) each time. In addition, the GI50 in the assay with NCI-H460, with SW-620, in the assay on OVCAR-3, with HOP-62, in the assay with CCRF-CEM and with Malme-3M was > 100 µM (inactive) throughout.

Turning to `N#CCCC1C(C#N)C2CC1C1C3C=CC(C3)C21` (stereo unspecified), the GI50 in the assay with A549, in the assay on CAKI-1, in the assay with HCT-116, in the assay on SK-MEL-2, in the assay with HT-29 and in the assay on HCC 2998 was > 100 µM (inactive) in each case. Besides, the GI50 in the assay with UACC-257, in the assay with BT-549, in the assay on OVCAR-4, in the assay on HL-60, in the assay with SW-620 and in the assay with OVCAR-3 was > 100 µM (inactive) in each case. The GI50 in the assay with CCRF-CEM, in the assay on K562 and in the assay on Malme-3M was > 100 µM (inactive) each time.

For the compound `COc1cccc2cc(C(N)=O)c(=N)oc12`, the GI50 with A549 is 50.5 µM (inactive); with CAKI-1, 39.4 µM (inactive); in the assay with SN12C, 39.4 µM (inactive); in the assay on HCT-116, 28.6 µM (inactive); in the assay with SK-MEL-2, 22.9 µM (inactive); in the assay with SF-539, 41.5 µM (inactive). Besides, the GI50 was 48.4 µM (inactive) in the assay on HT-29; 41.3 µM (inactive) in the assay on HCC 2998; > 100 µM (inactive) with UACC-257; > 100 µM (inactive) in the assay on BT-549; 53.5 µM (inactive) with OVCAR-4; 58.7 µM (inactive) in the assay with HL-60. For the same compound, the GI50 is 37.2 µM (inactive) in the assay on NCI-H460; 99.1 µM (inactive) in the assay with SW-620; 36.9 µM (inactive) in the assay on OVCAR-3; 40.6 µM (inactive) in the assay with CCRF-CEM; > 100 µM (inactive) with K562; 19.2 µM (inactive) with Malme-3M.

In the case of `COc1c2c(cc3occ(-c4ccc(CC=C(C)C)cc4)c(=O)c13)OC(C)(C)C=C2`, the GI50 is 30.1 µM (inactive) with A549; > 100 µM (inactive) with CAKI-1; 84.1 µM (inactive) in the assay with SN12C; 26.4 µM (inactive) in the assay on HCT-116; 11.2 µM (inactive) in the assay with SK-MEL-2; 26.9 µM (inactive) in the assay on HT-29. Moreover, the GI50 with HCC 2998 is 59.2 µM (inactive); with UACC-257 it was 39.4 µM (inactive); in the assay on BT-549, 76.2 µM (inactive); in the assay on OVCAR-4, > 10 µM (inactive); in the assay with HL-60, 10.3 µM (inactive); in the assay with SW-620, 45.6 µM (inactive). The GI50 in the assay on OVCAR-3 is 10.3 µM (inactive); in the assay on HOP-62, > 100 µM (inactive); in the assay on CCRF-CEM, 12.8 µM (inactive); with K562 it was 10.6 µM (inactive); with Malme-3M it was 60.5 µM (inactive).

Take `CNc1nnc(CNc2ccc(-c3nnc(NC)n3N)cc2)n1N`: the GI50 in the assay on A549, in the assay with CAKI-1, in the assay with SN12C, in the assay on HCT-116, in the assay with SK-MEL-2 and in the assay on SF-539 was > 100 µM (inactive) each time. The GI50 in the assay with HT-29 is > 100 µM (inactive); with HCC 2998 it was < 0.01 µM (active); with UACC-257, > 100 µM (inactive); in the assay on BT-549, 12.4 µM (inactive); in the assay with OVCAR-4, > 100 µM (inactive); in the assay with HL-60, 39.5 µM (inactive). The GI50 in the assay with NCI-H460, in the assay with SW-620, in the assay on OVCAR-3, in the assay on HOP-62, in the assay with CCRF-CEM and in the assay with K562 was > 100 µM (inactive) throughout.

Consider `S=c1sc2ccccc2n1CN1CCN(Cc2ccccc2)CC1`, for which the GI50 in the assay with A549, with CAKI-1, in the assay on SN12C, with HCT-116, in the assay on SK-MEL-2 and in the assay with SF-539 was > 100 µM (inactive) in each case. In addition, the GI50 in the assay on HT-29, in the assay on HCC 2998, in the assay with UACC-257, in the assay with BT-549, with OVCAR-4 and with HL-60 was > 100 µM (inactive) in each case. Also, the GI50 with NCI-H460, in the assay on SW-620, in the assay with OVCAR-3, in the assay on HOP-62, with CCRF-CEM and in the assay with K562 was > 100 µM (inactive) in each case.

`CCOC(=O)c1nc2ccc(C(F)(F)F)cc2nc1Nc1ccc(Cl)c(Cl)c1`: the GI50 was 67.8 µM (inactive) in the assay on A549; 57.1 µM (inactive) with CAKI-1; > 100 µM (inactive) in the assay on SN12C; 64.7 µM (inactive) in the assay on HCT-116; 69.7 µM (inactive) in the assay with SF-539; > 100 µM (inactive) in the assay with HT-29. Moreover, the GI50 is 39.5 µM (inactive) in the assay with HCC 2998; > 100 µM (inactive) with UACC-257; > 100 µM (inactive) in the assay with BT-549; 95.7 µM (inactive) in the assay on HL-60; > 100 µM (inactive) with NCI-H460; > 100 µM (inactive) in the assay with SW-620. For the same compound, the GI50 in the assay on OVCAR-3 is 38.3 µM (inactive); in the assay on HOP-62, 27.5 µM (inactive); in the assay on CCRF-CEM, 86.1 µM (inactive); with K562, 39.4 µM (inactive); in the assay on Malme-3M it was > 100 µM (inactive).

With `CCn1cc2c(=O)n3ncn(-c4ccc(Br)cc4)c3nc2n1`, the GI50 is > 100 µM (inactive) in the assay on A549; 0.942 µM (active) with CAKI-1; > 100 µM (inactive) with SN12C; > 100 µM (inactive) with HCT-116; > 100 µM (inactive) in the assay with SK-MEL-2; > 100 µM (inactive) in the assay with HT-29. The GI50 with HCC 2998, in the assay with UACC-257, in the assay on BT-549, with OVCAR-4, in the assay on HL-60 and with SW-620 was > 100 µM (inactive) each time. In addition, the GI50 in the assay on OVCAR-3 is > 100 µM (inactive); in the assay with HOP-62, 38.5 µM (inactive); with CCRF-CEM, > 100 µM (inactive); in the assay on K562, > 100 µM (inactive); in the assay with Malme-3M, > 100 µM (inactive).

Take `COc1cccc(C(=O)C(O)c2cccc(OC)c2OC)c1OC` (stereo unspecified): the GI50 in the assay on A549, in the assay on CAKI-1, in the assay with SN12C, with HCT-116, in the assay with SK-MEL-2 and in the assay on SF-539 was > 100 µM (inactive) throughout. Also, the GI50 in the assay with HT-29, with HCC 2998, in the assay on UACC-257, with BT-549, in the assay with OVCAR-4 and in the assay with HL-60 was > 100 µM (inactive) each time. Moreover, the GI50 in the assay on NCI-H460, with SW-620, with OVCAR-3, in the assay on HOP-62, in the assay with CCRF-CEM and in the assay with Malme-3M was > 100 µM (inactive) throughout.

Consider `Clc1cccc(/N=C/C=C/Nc2cccc(Cl)c2)c1`, for which the GI50 in the assay on A549 is 28.5 µM (inactive); in the assay with CAKI-1 it was 26.1 µM (inactive); with SN12C it was 14 µM (inactive); in the assay with HCT-116, 15 µM (inactive); in the assay with SF-539 it was 17.2 µM (inactive); in the assay with HT-29, 16.7 µM (inactive). In addition, the GI50 was 11.9 µM (inactive) with HCC 2998; 16.6 µM (inactive) in the assay on UACC-257; 16.1 µM (inactive) in the assay on BT-549; 40.4 µM (inactive) in the assay on OVCAR-4; 18.9 µM (inactive) in the assay on HL-60; 17.7 µM (inactive) in the assay with NCI-H460. Also, the GI50 was 22.9 µM (inactive) in the assay on SW-620; 18.3 µM (inactive) in the assay on OVCAR-3; 16.8 µM (inactive) in the assay with HOP-62; > 10 µM (inactive) in the assay with CCRF-CEM; > 10 µM (inactive) in the assay with Malme-3M.
